This note sets out measurements from patent US20220169660A1, “CYCLIC AMINO-PYRAZINECARBOXAMIDE COMPOUNDS AND USES THEREOF” (SILVERBACK THERAPEUTICS, INC., priority 2019, published 2022).

For assay [1], the system named is HEK293 SMAD2p luciferase reporter cells transfected to stably express full length human LRRC15. Nature of the assay: Cell reporter assay of anti-LRRC15 antibody drug conjugates (SMAD2p luciferase). It counts as cell-based. Conditions: linker-payload conjugated to anti-LRRC15 antibody; human TGFβ1 1.6 ng/ml; absolute EC50. An excerpt:
The linker payloads in Table 8 were covalently attached to an anti-LRRC15 antibody. The LRRC15 antibody is the murine M25 antibody or a humanized variant thereof (see PCT Application Publication No. WO 2017/095805, incorporated herein by reference in its entirety). Conjugation to the linker-payload is via the interchain disulfides. The antibodies have either a wild-type Fc domain or a null Fc domain. The Fcnull mutations for human IgG1 are L234A, L236A, G237A, and K322A and the Fcnull mutations for murine IgG2a are L234A, L236A, G237A, K322A, and P329G; numbering by EU index.
The resultant antibody drug conjugates were tested via a cell reporter assay. HEK293 SMAD2p luciferase reporter cells transfected to stably express full length human LRRC15 were seeded in 96 well plates at 40,000 cells/well in an assay media of MEM +0.5% FBS, 1% NEAA, 1% NaPyr & 1% Pen/Strep. Conjugates and controls were added to wells in a dose titration ranging from 500 nM to 0.03 nM. After 24 hours of culture at 37° C. in a 5% CO2 environment human TGFβ1 was added (PeproTech Inc.) to a final concentration of 1.6 ng/ml followed by an additional 18 hour of culture. Luciferase Steady Glo reagent (Promega Corporation) was added as recommended by manufacturer. After incubating 10 minutes with shaking, SMAD2p activity was determined by measuring luminescence with an Envision Plate Reader (Perkin-Elmer Inc.) and an absolute EC50 was determined using Prism Software v8.01 (GraphPad Inc.).
(A reporter such as luciferase makes a cellular process visible.)

The subject of assay [2] is TGFβ/SMAD Singling Pathway SBE reporter cell line. Nature of the assay: TGFβ reporter assay (in vitro small molecule screening). Type of assay: cell-based. The conditions noted are these: SBE luciferase reporter cells, TGFβ stimulation, 18 h, luminescence. On the procedure: TGFβ/SMAD Singling Pathway SBE reporter cell line was obtained from BPS Bioscience. Cells were passed, expanded, and stored in liquid nitrogen as per the supplier's instructions with the exception that growth media is changed to DMEM-C with Geneticin (DMEM supplemented with 10% fetal bovine serum, 1×NEAA, 1 mM Pyruvate, 2 mM glutamine, 50 μg/mL penicillin, 50 U/mL streptomycin and 400 μg/mL of Geneticin). The assay media was MEM supplemented with […] fetal bovine serum, 1×NEAA, 1 mM Pyruvate, 50 μg/mL penicillin and 50 U/mL streptomycin.
Test samples (at desired concentrations diluted in assay media) were added to a 96-well assay plate, 20 μL per well. Reporter cells were harvested from the tissue culture flasks by incubation in small quantity of PBS at 37° C. for two minutes after the media in the flask is removed and cells rinsed with PBS. Cells were counted and diluted in the assay media at approximately 0.5×10^6 cells/mL and then 80 μL/well of cells were added to the assay plate containing the 20 μL/well of test samples (or media only), and incubated for approximately 5-6 hours at 37° C. in a 5% CO2 humidified incubator. After that time, 15 μL of TGFβ diluted to 12 ng/mL in the assay media was added to the plate. Controls included TGFβ titration (from 50 to 0 ng/mL) without inhibitors, and media only (without cells, inhibitor or TGFβ). Plates were incubated at 37° C. in a 5% CO2 humidified incubator for 18 h. Luciferase substrate solution is subsequently added at 100 μL per well, incubated in the dark at room temperature for 15 min, and luminescence is measured using a luminometer. EC50 values and curve fits were obtained using Prism (GraphPad Software).

The target of the next assay is T1, TGFBR2 (Homo sapiens, UniProt P37173).
T1 construct: purchased Reaction Biology Corp
T1 sequence (P37173 23-567): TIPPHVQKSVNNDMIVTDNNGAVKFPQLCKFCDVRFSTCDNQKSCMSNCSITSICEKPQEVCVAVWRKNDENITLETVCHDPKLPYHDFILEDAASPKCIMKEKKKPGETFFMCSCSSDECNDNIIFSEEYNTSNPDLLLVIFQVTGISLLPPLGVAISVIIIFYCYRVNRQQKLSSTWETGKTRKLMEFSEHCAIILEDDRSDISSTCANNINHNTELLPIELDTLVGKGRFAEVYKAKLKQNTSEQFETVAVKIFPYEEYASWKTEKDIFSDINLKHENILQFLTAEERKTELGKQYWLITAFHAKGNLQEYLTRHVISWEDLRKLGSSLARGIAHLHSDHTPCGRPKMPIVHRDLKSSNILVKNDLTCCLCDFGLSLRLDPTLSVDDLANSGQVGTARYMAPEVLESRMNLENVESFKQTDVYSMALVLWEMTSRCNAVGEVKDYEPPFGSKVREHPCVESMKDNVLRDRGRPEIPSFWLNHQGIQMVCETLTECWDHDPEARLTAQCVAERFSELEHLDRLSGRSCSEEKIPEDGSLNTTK
Nature of the assay: TGFBR2 RBC enzyme assay (Reaction Biology Corp.). It counts as biochemical. On the procedure: Compounds of the disclosure were assayed by Reaction Biology Corp. using the TGFBR2 RBC enzyme assay.

One may read the EC50 as the concentration needed to bring the measured effect to its halfway point.

In turn, “4-((S)-2-((S)-2-(6-(2,5-dioxo-2,5-dihydro-1H-pyrrol-1-yl)hexanamido)-3-methylbutanamido)-5-ureidopentanamido)benzyl (3-((2^5-amino-6-methyl-3-oxo-10-oxa-4,6-diaza-2(2,6)-pyrazina-5(3,4)-pyridina-1(1,3)-benzenacyclodecaphane-15-yl)oxy)propyl)carbamate [Compound B-16]” showed an EC50 in assay [1] of 1 to 1000 nM.

On to `CN1C[C@@H](CN)Oc2ccccc2-c2cnc(N)c(n2)C(=O)Nc2cnccc21` [Compound 60, (R)-2^5-amino-8-(aminomethyl)-6-methyl-9-oxa-4,6-diaza-2(2,6)-pyrazina-5(3,4)-pyridina-1(1,2)-benzenacyclononaphan-3-one], for which the concentration for a half-maximal effect (EC50) in assay [2] is 1000 to 5000 nM; at TGFBR2, > 1000 nM.

For `CN1CCCOc2cc(ccc2OCCCN)-c2cnc(N)c(n2)C(=O)Nc2cnccc21` [Compound 61, 2^5-amino-1^4-(3-aminopropoxy)-6-methyl-10-oxa-4,6-diaza-2(2,6)-pyrazina-5(3,4)-pyridina-1(1,3)-benzenacyclodecaphan-3-one], the EC50 in assay [2] is 1 to 1000 nM; on TGFBR2 it was 1 to 100 nM.

As for `CN1CCCOc2cc(ccc2CCCCN)-c2cnc(N)c(n2)C(=O)Nc2cnccc21` [Compound 62, 2^5-amino-1^4-(4-aminobutyl)-6-methyl-10-oxa-4,6-diaza-2(2,6)-pyrazin-5(3,4)-pyridina-1(1,3)-benzenacyclodecaphan-3-one], the results for the concentration giving a half-maximal response (EC50) (in assay [2]; on TGFBR2) were 1 to 1000 nM and 1 to 100 nM, respectively.

As for `CN1CCCCc2cc(ccc2OCCCN)-c2cnc(N)c(n2)C(=O)Nc2cnccc21` [Compound 63, 2^5-amino-1^4-(3-aminopropxy)-6-methyl-4,6-diaza-2(2,6)-pyrazina-5(3,4)-pyridina-1(1,3)-benzenacyclodecaphan-3-one], the half-maximal effective concentration (EC50) was in the range of 1 to 1000 nM in assay [2] and 1 to 100 nM on TGFBR2.

As for `CN1CCOc2ccc(OCCCN)cc2-c2cnc(N)c(n2)C(=O)Nc2cnccc21` [Compound 64, 2^5-amino-1^5-(3-aminopropoxy)-6-methyl-9-oxa-4,6-diaza-2(2,6)-pyrazina-5(3,4)-pyridina-1(1,2)-benzenacyclononaphan-3-one], the concentration giving a half-maximal response (EC50) lay in the range of 1 to 1000 nM in assay [2] and 1 to 100 nM at TGFBR2.

Regarding `CN1CCOc2cc(OCCCN)ccc2-c2cnc(N)c(n2)C(=O)Nc2cnccc21` [Compound 65, 2^5-amino-1^4-(3-aminopropoxy)-6-methyl-9-oxa-4,6-diaza-2(2,6)-pyrazina-5(3,4)-pyridina-1(1,2)-benzenacyclononaphan-3-one], the EC50 in assay [2] fell in the range of 1 to 1000 nM; at TGFBR2, 1 to 100 nM.

Compound `CC(C)[C@H](NC(=O)CCOCCOCCOCCOCCN1C(=O)C=CC1=O)C(=O)N[C@@H](CCCNC(N)=O)C(=O)Nc1ccc(COC(=O)NCCCOc2ccc3cc2OCCCN(C)c2ccncc2NC(=O)c2nc-3cnc2N)cc1` [Compound B-61] had an EC50 in assay [1] of 1 to 1000 nM.

Take `CC(C)[C@H](NC(=O)CCOCCOCCOCCOCCN1C(=O)C=CC1=O)C(=O)N[C@@H](CCCNC(N)=O)C(=O)Nc1ccc(COC(=O)NCCCCc2ccc3cc2CCCCN(C)c2ccncc2NC(=O)c2nc-3cnc2N)cc1` [Compound B-62]: the EC50 in assay [1] is 1 to 1000 nM.

Regarding `CC(C)[C@H](NC(=O)CCOCCOCCOCCOCCN1C(=O)C=CC1=O)C(=O)N[C@@H](CCCNC(N)=O)C(=O)Nc1ccc(COC(=O)NCCCOc2ccc3cc2CCCCN(C)c2ccncc2NC(=O)c2nc-3cnc2N)cc1` [Compound B-63], the 50% effective concentration (EC50) in assay [1] lay in the range of 1 to 1000 nM.

As for `CC(C)[C@H](NC(=O)CCOCCOCCOCCOCCN1C(=O)C=CC1=O)C(=O)N[C@@H](CCCNC(N)=O)C(=O)Nc1ccc(COC(=O)NCCCOc2ccc3c(c2)-c2cnc(N)c(n2)C(=O)Nc2cnccc2N(C)CCO3)cc1` [Compound B-64], in assay [1], the EC50 was in the range of 1 to 1000 nM.

In assay [1], `CC(C)[C@H](NC(=O)CCOCCOCCOCCOCCN1C(=O)C=CC1=O)C(=O)N[C@@H](CCCNC(N)=O)C(=O)Nc1ccc(COC(=O)NCCCOc2ccc3c(c2)OCCN(C)c2ccncc2NC(=O)c2nc-3cnc2N)cc1` [Compound B-65] had an EC50 of 1 to 1000 nM.
